Experimental data from patent publication US8247211B2, “Glycopeptide antibiotics” (American Cyanamid Company, priority 2001, dated 2012).
≈ marks a conversion by molar mass, not a printed value.

Key:
Test in all cases: In vitro antibacterial evaluation: minimum inhibitory concentration (MIC), broth dilution method
Assay type in all cases: cell-based
[1] = tested on: Enterococcus sp.
Summary of the method: (§1)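 Test strains, among them recent clinical isolates carrying methicillin, penicillin and/or vancomycin resistance, were inoculated at 5×10^5 CFU/mL. A broth dilution series spanning 64-0.06 μg/mL in Muller-Hinton II […] (NCCLS M7-A2) defined the MIC as the lowest growth-inhibiting concentration.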

[2] = tested on: Escherichia coli
Summary of the method: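 Values are minimum inhibitory concentrations, meaning the smallest antibiotic concentration that stops growth of the organism. They come from broth dilution in Muller-Hinton II […] per NCCLS guidance (M7-A2), using 5×10^5 CFU/mL and concentrations from 64 to 0.06 μg/mL.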

[3] = tested on: Staphylococcus sp.; conditions: broth dilution, 18 hours at 35° C.
Summary of the method: as §1

[4] = tested on: Streptococcus sp.
Summary of the method: as §1

[5] = broth dilution, inoculum 5×10^5 CFU/mL, 18 hours at 35° C.

MIC Enterococcus avium (GC 4558) [1, 5]: 4 µg/mL (≈ 2.73 µM)
MIC Enterococcus faecalis (ATCC 29212) [1, 5]: 8 µg/mL (≈ 5.46 µM)
MIC Enterococcus faecalis (GC 2242) [1, 5]: 4 µg/mL (≈ 2.73 µM)
MIC Enterococcus faecalis (GC 2691) [1, 5]: 4 µg/mL (≈ 2.73 µM)
MIC Enterococcus faecalis (GC 3059) [1, 5]: 8 µg/mL (≈ 5.46 µM)
MIC Enterococcus faecalis (GC 4552) [1, 5]: 8 µg/mL (≈ 5.46 µM)
MIC Enterococcus faecalis (GC 4553) [1, 5]: 4 µg/mL (≈ 2.73 µM)
MIC Enterococcus faecalis (GC 4554) [1, 5]: 8 µg/mL (≈ 5.46 µM)
MIC Enterococcus faecalis (GC 6189) [1, 5]: 4 µg/mL (≈ 2.73 µM)
MIC Enterococcus faecium (GC 2243) [1, 5]: 8 µg/mL (≈ 5.46 µM)
MIC Enterococcus faecium (GC 4556) [1, 5]: 4 µg/mL (≈ 2.73 µM)
MIC Enterococcus faecium (GC 4557) [1, 5]: 8 µg/mL (≈ 5.46 µM)
MIC Enterococcus faecalis (ATCC 29212) ([1]; strain ATCC 29212): 8 µg/mL (≈ 5.46 µM)
MIC Enterococcus faecalis (GC 2242) ([1]; strain GC 2242): 4 µg/mL (≈ 2.73 µM)
MIC Enterococcus faecium (GC 2243) ([1]; strain GC 2243): 8 µg/mL (≈ 5.46 µM)
MIC Enterococcus faecalis (GC 2691) ([1]; strain GC 2691): 4 µg/mL (≈ 2.73 µM)
MIC Enterococcus faecalis (GC 3059) ([1]; strain GC 3059): 8 µg/mL (≈ 5.46 µM)
MIC Enterococcus faecalis (GC 4552) ([1]; strain GC 4552): 8 µg/mL (≈ 5.46 µM)
MIC Enterococcus faecalis (GC 4553) ([1]; strain GC 4553): 4 µg/mL (≈ 2.73 µM)
MIC Enterococcus faecalis (GC 4554) ([1]; strain GC 4554): 8 µg/mL (≈ 5.46 µM)
MIC Enterococcus faecium (GC 4556) ([1]; strain GC 4556): 4 µg/mL (≈ 2.73 µM)
MIC Enterococcus faecium (GC 4557) ([1]; strain GC 4557): 8 µg/mL (≈ 5.46 µM)
MIC Enterococcus avium (GC 4558) ([1]; strain GC 4558): 4 µg/mL (≈ 2.73 µM)
MIC Enterococcus faecalis (GC 6189) ([1]; strain GC 6189): 4 µg/mL (≈ 2.73 µM)
MIC Escherichia coli (ATCC 25922) ([2]; strain ATCC 25922): >64 µg/mL
MIC Escherichia coli (GC 4559) ([2]; strain GC 4559): 64 µg/mL (≈ 43.7 µM)
MIC Escherichi coli (GC 4560) ([2]; strain GC 4560): 8 µg/mL (≈ 5.46 µM)
MIC Coagulase Negative Staphylococcus (GC 4547) ([3]; 5×10^5 CFU/mL): 8 µg/mL (≈ 5.46 µM)
MIC Coagulase Negative Staphylococcus (GC 4548) ([3]; 5×10^5 CFU/mL): 1 µg/mL (≈ 0.682 µM)
MIC Coagulase Negative Staphylococcus (GC 4549) ([3]; 5×10^5 CFU/mL): 4 µg/mL (≈ 2.73 µM)
MIC Coagulase Negative Staphylococcus (GC 4551) ([3]; 5×10^5 CFU/mL): 2 µg/mL (≈ 1.36 µM)
MIC Coagulase Negative Staphylococcus (GC 6257) ([3]; 5×10^5 CFU/mL): 2 µg/mL (≈ 1.36 µM)
MIC Staphylococcus aureus (ATCC 29213) ([3]; 5×10^5 CFU/mL): 4 µg/mL (≈ 2.73 µM)
MIC Staphylococcus aureus (GC 1131) ([3]; 5×10^5 CFU/mL): 4 µg/mL (≈ 2.73 µM)
MIC Staphylococcus aureus (GC 3051) ([3]; 5×10^5 CFU/mL): 8 µg/mL (≈ 5.46 µM)
MIC Staphylococcus aureus (GC 3053) ([3]; 5×10^5 CFU/mL): 8 µg/mL (≈ 5.46 µM)
MIC Staphylococcus aureus (GC 4541) ([3]; 5×10^5 CFU/mL): 4 µg/mL (≈ 2.73 µM)
MIC Staphylococcus aureus (GC 4542) ([3]; 5×10^5 CFU/mL): 4 µg/mL (≈ 2.73 µM)
MIC Staphylococcus aureus (GC 4544) ([3]; 5×10^5 CFU/mL): 4 µg/mL (≈ 2.73 µM)
MIC Staphylococcus aureus (GC 4545) ([3]; 5×10^5 CFU/mL): 4 µg/mL (≈ 2.73 µM)
MIC Staphylococcus aureus-SMITH (GC 4543) ([3]; 5×10^5 CFU/mL): 1 µg/mL (≈ 0.682 µM)
MIC Staphylococcus aureus (ATCC 29213) ([3]; strain ATCC 29213): 4 µg/mL (≈ 2.73 µM)
MIC Staphylococcus aureus (GC 1131) ([3]; strain GC 1131): 4 µg/mL (≈ 2.73 µM)
MIC Staphylococcus aureus (GC 3051) ([3]; strain GC 3051): 8 µg/mL (≈ 5.46 µM)
MIC Staphylococcus aureus (GC 3053) ([3]; strain GC 3053): 8 µg/mL (≈ 5.46 µM)
MIC Staphylococcus aureus (GC 4541) ([3]; strain GC 4541): 4 µg/mL (≈ 2.73 µM)
MIC Staphylococcus aureus (GC 4542) ([3]; strain GC 4542): 4 µg/mL (≈ 2.73 µM)
MIC Staphylococcus aureus-SMITH (GC 4543) ([3]; strain GC 4543): 1 µg/mL (≈ 0.682 µM)
MIC Staphylococcus aureus (GC 4544) ([3]; strain GC 4544): 4 µg/mL (≈ 2.73 µM)
MIC Staphylococcus aureus (GC 4545) ([3]; strain GC 4545): 4 µg/mL (≈ 2.73 µM)
MIC Coagulase Negative Staphylococcus (GC 4547) ([3]; strain GC 4547): 8 µg/mL (≈ 5.46 µM)
MIC Coagulase Negative Staphylococcus (GC 4548) ([3]; strain GC 4548): 1 µg/mL (≈ 0.682 µM)
MIC Coagulase Negative Staphylococcus (GC 4549) ([3]; strain GC 4549): 4 µg/mL (≈ 2.73 µM)
MIC Coagulase Negative Staphylococcus (GC 4551) ([3]; strain GC 4551): 2 µg/mL (≈ 1.36 µM)
MIC Coagulase Negative Staphylococcus (GC 6257) ([3]; strain GC 6257): 2 µg/mL (≈ 1.36 µM)
MIC Streptococcus agalactiae (GC 4564) [4, 5]: <0.5 µg/mL
MIC Streptococcus pneumoniae (ATCC 6301) [4, 5]: <0.5 µg/mL
MIC Streptococcus pneumoniae (GC 1894) [4, 5]: <0.5 µg/mL
MIC Streptococcus pneumoniae (GC 4565) [4, 5]: 1 µg/mL (≈ 0.682 µM)
MIC Streptococcus pyogenes (GC 4563) [4, 5]: <0.5 µg/mL
MIC Streptococcus pneumoniae (ATCC 6301) ([4]; strain ATCC 6301): <0.5 µg/mL
MIC Streptococcus pneumoniae (GC 1894) ([4]; strain GC 1894): <0.5 µg/mL
MIC Streptococcus pyogenes (GC 4563) ([4]; strain GC 4563): <0.5 µg/mL
MIC Streptococcus agalactiae (GC 4564) ([4]; strain GC 4564): <0.5 µg/mL
MIC Streptococcus pneumoniae (GC 4565) ([4]; strain GC 4565): 1 µg/mL (≈ 0.682 µM)
Compound: CC(c1ccccc1)C1NC(=O)CNC(=O)C(CO)NC(=O)C(C(O)C2CNC(=N)N2C2OC(CO)C(O)C(O)C2O)NC(=O)C(C(O)C2CNC(=N)N2)NC(=O)C(Cc2ccc(OC3OC(CO)C(OC4OC5COC(c6ccc(-c7cccs7)cc6)OC5C(O)C4O)C(O)C3O)cc2)NC1=O (stereo not drawn) [Example 163, Cyclo[glycyl-β-methylphenylalanyl-O-[4-O-[4,6-O-[4-(2-thienyl)benzylidene]hexopyranosyl]-hexopyranosyl]tyrosyl-3-(2-iminoimidazolidin-4-yl)seryl-3-(3-hexopyranosyl-2-iminoimidazolidin-4-yl)serylseryl]]
MIC Staphylococcus haemolyticus (GC 4546) ([3]; 5×10^5 CFU/mL): 4 µg/mL (≈ 2.73 µM)
MIC Staphylococcus haemolyticus (GC 4546) ([3]; strain GC 4546): 4 µg/mL (≈ 2.73 µM)
